The source of these data is ChEMBL document CHEMBL1129706, “Z1046, a novel peripheral dopaminergic agent” (Bioorg Med Chem Lett, 1996).

In assay [1] the target is D(2) dopamine receptor (Homo sapiens) (UniProt P14416). The note with it: Oryctolagus cuniculus; Artery.
Description: Activity at Dopamine receptor D2 in rabbit ear artery
The target in assay [2] is D(1A) dopamine receptor (Homo sapiens) (UniProt P21728). The conditions noted are these: Oryctolagus cuniculus.
Description: Dopamine receptor D1 like evaluated for mesenteric blood flow increase in anesthetized rabbit
Assay [3] addresses Adrenergic receptor alpha-2 (Homo sapiens) (UniProt P08913+P18825+P18089). The conditions noted are these: Cavia porcellus; Cardiac atrium.
Description: Alpha-2 adrenergic receptor activity in guinea pig right atrium
Assay [4] deals with T1, Adrenergic receptor alpha-1 (Homo sapiens, UniProt P35348+P25100+P35368).
T1 sequence (P35348 whole entry): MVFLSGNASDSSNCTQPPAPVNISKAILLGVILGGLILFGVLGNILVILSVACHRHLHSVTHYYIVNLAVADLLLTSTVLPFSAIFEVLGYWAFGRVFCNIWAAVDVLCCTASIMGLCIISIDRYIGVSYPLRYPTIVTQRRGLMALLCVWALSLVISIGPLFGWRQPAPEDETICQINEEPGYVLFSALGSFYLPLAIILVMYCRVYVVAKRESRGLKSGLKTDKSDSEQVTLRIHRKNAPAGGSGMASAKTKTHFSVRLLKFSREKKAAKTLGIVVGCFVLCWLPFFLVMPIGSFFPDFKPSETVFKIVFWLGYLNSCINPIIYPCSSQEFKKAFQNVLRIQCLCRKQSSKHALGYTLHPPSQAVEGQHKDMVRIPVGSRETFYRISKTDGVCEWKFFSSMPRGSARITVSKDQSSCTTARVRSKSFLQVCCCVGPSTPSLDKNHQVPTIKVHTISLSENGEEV
T1 sequence (P25100 whole entry): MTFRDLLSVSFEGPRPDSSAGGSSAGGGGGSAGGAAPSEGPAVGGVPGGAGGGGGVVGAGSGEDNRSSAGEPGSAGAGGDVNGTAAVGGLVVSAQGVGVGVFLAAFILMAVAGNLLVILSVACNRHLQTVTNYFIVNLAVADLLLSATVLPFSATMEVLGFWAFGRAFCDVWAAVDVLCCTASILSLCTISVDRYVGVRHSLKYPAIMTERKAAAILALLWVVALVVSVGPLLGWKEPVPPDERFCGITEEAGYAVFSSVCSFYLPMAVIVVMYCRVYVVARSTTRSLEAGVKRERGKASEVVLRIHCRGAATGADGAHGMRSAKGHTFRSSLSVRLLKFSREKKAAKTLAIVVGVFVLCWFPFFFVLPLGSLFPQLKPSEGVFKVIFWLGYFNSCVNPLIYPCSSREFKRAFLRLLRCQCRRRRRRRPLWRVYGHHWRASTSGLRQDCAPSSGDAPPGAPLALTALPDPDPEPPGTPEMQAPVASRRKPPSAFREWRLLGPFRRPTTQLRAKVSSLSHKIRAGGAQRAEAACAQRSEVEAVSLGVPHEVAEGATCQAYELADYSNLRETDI
T1 sequence (P35368 whole entry): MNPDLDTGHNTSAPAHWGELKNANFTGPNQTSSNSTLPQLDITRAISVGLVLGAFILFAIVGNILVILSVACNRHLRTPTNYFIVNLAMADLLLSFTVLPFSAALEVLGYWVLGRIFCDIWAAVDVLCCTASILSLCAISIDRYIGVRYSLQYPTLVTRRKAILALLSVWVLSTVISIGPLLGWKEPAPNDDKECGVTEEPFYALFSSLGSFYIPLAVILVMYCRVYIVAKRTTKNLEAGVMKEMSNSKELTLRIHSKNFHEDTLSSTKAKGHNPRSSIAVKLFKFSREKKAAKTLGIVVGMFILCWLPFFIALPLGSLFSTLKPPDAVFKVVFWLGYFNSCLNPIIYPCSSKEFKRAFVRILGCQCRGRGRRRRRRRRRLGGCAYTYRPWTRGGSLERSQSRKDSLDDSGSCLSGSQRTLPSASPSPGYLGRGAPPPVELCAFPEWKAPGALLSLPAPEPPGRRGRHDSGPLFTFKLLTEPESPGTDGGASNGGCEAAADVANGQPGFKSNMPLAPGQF
Briefly: Activity at alpha-1 adrenergic receptor in rabbit aorta rings. The conditions noted are these: target entry is the homologue from another species. The assay is classed as tissue-based, Oryctolagus cuniculus.

Assay [5] deals with Adrenergic receptor alpha-1 (Homo sapiens) (UniProt P35348+P25100+P35368). The note with it: Oryctolagus cuniculus; Aorta.

Structures are written as SMILES. Some results are limits rather than exact numbers.

Chain of D(2) dopamine receptor (Homo sapiens) (P14416 whole entry): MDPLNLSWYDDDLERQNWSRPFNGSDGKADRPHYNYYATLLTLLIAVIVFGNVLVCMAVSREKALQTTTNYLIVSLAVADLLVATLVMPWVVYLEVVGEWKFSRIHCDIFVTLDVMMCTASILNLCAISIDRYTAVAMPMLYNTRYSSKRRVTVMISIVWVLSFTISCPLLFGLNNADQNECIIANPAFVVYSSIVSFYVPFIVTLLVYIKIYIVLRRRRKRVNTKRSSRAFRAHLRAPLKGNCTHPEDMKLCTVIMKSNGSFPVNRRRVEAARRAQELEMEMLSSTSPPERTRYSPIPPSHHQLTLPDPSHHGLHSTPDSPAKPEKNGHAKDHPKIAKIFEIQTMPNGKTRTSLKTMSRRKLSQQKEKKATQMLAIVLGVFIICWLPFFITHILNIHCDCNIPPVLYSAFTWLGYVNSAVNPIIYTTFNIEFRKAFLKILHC
Chain of D(1A) dopamine receptor (Homo sapiens) (P21728 whole entry): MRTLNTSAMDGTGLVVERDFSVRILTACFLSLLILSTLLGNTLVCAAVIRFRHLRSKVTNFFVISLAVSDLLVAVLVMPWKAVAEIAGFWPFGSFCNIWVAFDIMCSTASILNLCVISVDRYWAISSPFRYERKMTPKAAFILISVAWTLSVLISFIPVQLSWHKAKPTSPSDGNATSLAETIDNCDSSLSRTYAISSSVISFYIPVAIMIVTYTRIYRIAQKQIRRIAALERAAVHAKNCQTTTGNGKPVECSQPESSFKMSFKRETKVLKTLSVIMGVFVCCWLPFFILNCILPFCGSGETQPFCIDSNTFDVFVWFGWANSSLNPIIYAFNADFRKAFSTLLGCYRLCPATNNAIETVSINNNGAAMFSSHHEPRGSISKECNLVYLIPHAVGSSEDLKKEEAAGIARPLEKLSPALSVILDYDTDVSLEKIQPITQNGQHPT

What is called pA2 is the negative logarithm of the molar antagonist concentration that doubles the agonist concentration needed for the same response. Read a high pA2 as higher antagonist potency. With `COc1ccccc1OCCNCCCCCCN[C@H]1CCc2c(ccc(O)c2O)C1`, the pD2 in assay [1] was 6.5; in assay [3] it was less than 5. Besides, in assay [2], the ED20 was more than 3000 nM/kg. Moreover, in assay [4], the pA2 is given as 7.1.
Regarding `CCCN(CCCCCCN(CCC)[C@H]1CCc2c(ccc(O)c2O)C1)CCOc1ccccc1OC`, the results for the pD2 in assay [1] and in assay [3] were 7.4 and 6, respectively. Also, the ED20 in assay [2] was 407 nM/kg. The pA2 in assay [4] is less than 5.
The corresponding values for `CCCN(CCCCCNCCOc1ccccc1OC)[C@H]1CCc2c(ccc(O)c2O)C1` are 8.7, 6.5, 107 nM/kg and 6.5.
The corresponding values for `CCCN(CCCCCCNCCOc1ccccc1OC)[C@@H]1CCc2c(ccc(O)c2O)C1` are 6.5, less than 5, 1050 nM/kg and 6.9.
Regarding `CCCN(CCCCCCNCCOc1ccccc1OC)[C@H]1CCc2c(ccc(O)c2O)C1`, the figures for the pD2 in assay [1] and in assay [3] were 9 and 6.7, respectively. The same molecule yielded an ED20 in assay [2] of 13 nM/kg. The molecule also came in with a pA2 in assay [4] of 6.5.
Regarding `CCCN(CCCCCCCNCCOc1ccccc1OC)[C@H]1CCc2c(ccc(O)c2O)C1`, the pD2 is 8.4 in assay [1] and 5.7 in assay [3]. Moreover, the ED20 in assay [2] was found to be 35 nM/kg. The pA2 in assay [4] was 6.8.
In turn, `CNC[C@H](O)c1cccc(O)c1` gave a pD2 in assay [5] of 6.5.
With `CCCCN(CCCCCCNCCOc1ccccc1OC)[C@H]1CCc2c(ccc(O)c2O)C1`, the pD2 in assay [1] is 7.5; in assay [3], less than 5. The same molecule had an ED20 in assay [2] of 60 nM/kg. Moreover, the pA2 in assay [4] is given as 6.6.
The corresponding values for `CCCN(CCCCCCNCCOc1ccccc1OC)CCc1ccc(O)c(O)c1` are 7.56, less than 5, more than 3000 nM/kg and 6.5.
For `CCCN(CCCCCCN(C)CCOc1ccccc1OC)[C@H]1CCc2c(ccc(O)c2O)C1`, the figures for the pD2 in assay [1] and in assay [3] were 8.5 and 6.9, respectively. In assay [2], the ED20 stood at 34 nM/kg. Also, in assay [4], the pA2 is on record as less than 5.
